≈ marks a conversion by molar mass, not a printed value. Where “and” joins values, the source holds several entries; their conditions need not be identical. Equal entries are not always repeated.

In experiment [1] the test system is E. faecium ATCC 700221. Kind of experiment: MIC determination (microbroth dilution). The experiment is classed as cell-based. Conditions: Enterococcus faecium, ATCC700221. The protocol: (§1) Cultures were, if not stated differently, incubated at 37 °C with aeration and shaking (150 rpm) in Mueller-Hinton broth (MHB). Bacteria were freshly incubated at the next morning from an overnight pre-culture for actively growing bacteria to an OD600 nm of approx. 0.6. To ensure persistent growth form, the bacteria were grown overnight until a density at OD600 nm > 5.0 was obtained. For biofilm growth, some colonies from a Mueller-Hinton agar (MHA) plate were picked and resuspended in MHB. Cell density has been adjusted to OD600 nm = 0.8, and cells were sown into a flat-bottom 96-well plate to be incubated statically at 37 °C with aeration. Studies were mainly performed with S. aureus Mu50.
(§2) The minimal inhibitory concentration (MIC) has been determined according to the CSLI guidelines (CLSI [2012]). Briefly, in a sterile polystyrene U-bottom 96-well plate, a 2-fold serial dilution ranging from 100 to 0.78 μM of testing compounds has been prepared in 50 μL MHB. A freshly inoculated S. aureus culture was grown until OD600 nm of approx. 0.6 and diluted to 10^6 CFU/mL in MHB. Finally, 50 μL of the latter cell suspension was added to each well and then incubated statically for 18–24 h at 37 °C. MIC was determined using BacTiterGlo ATP assay (Promega, Madison, WI, USA) and Tecan Infinite F200 Pro (Tecan, Männedorf, Switzerland). Moxifloxacin and DMSO were used as positive and negative control, respectively. Sublethal concentrations of colistin (0.1 μM) were used in some experiments to increase the permeability of the gram-negative cell envelope for compound testing. For E. cloacae, a broth microdilution assay was performed using a serial 2-fold dilution in 96-well flat-bottomed plates (Falcon, BD Bioscience, Heidelberg) of both PPs in broth LB medium (Roth, Karlsruhe) at a concentration range of 50–0.024 μM.

For experiment [2], the system named is Bacillus subtilis 168 trp C2. Kind of experiment: MIC determination (microbroth dilution). It counts as cell-based. Conditions: 168TRPC2. The protocol:
as §1, §2

Experiment [3] has as its system S. aureus Mu50. Kind of experiment: MIC determination (microbroth dilution). Conditions: Staphylococcus aureus. The experiment is classed as cell-based. The protocol:
as §1, §2

Experiment [4] relates to S. aureus USA300. Briefly: MIC determination (microbroth dilution). The experiment is classed as cell-based. Conditions: Staphylococcus aureus. The protocol: as §1, §2
Experiment [5] deals with persisters of MRSA Mu50. Briefly: Antipersister activity assay (Resazurin). The experiment is classed as cell-based. Conditions: Staphylococcus aureus, 24 h, read-out: MIC against persisters. The procedure:
as §1
Sterile U-bottom 96-well polystyrene plates were used for the assay. The wells were prepared with a final volume of 50 μL phosphate-buffered saline (PBS, NaCl = 137 mM, KCl = 2.7 mM, NaHPO4 = 10 mM, KH2PO4 = 1.8 mM, pH = 7.4) containing a 2-fold serial dilution of compounds ranging from 100 to 0.78 μM. S. aureus was cultivated as described above and washed three times with PBS before adjusting the cell density to approx. 2 × 10^7 cells/mL (OD600 nm = 0.08). […]
Viability of bacterial cells was estimated employing the Resazurin dye reduction assay. […] Finally, the fluorescence was quantified in a plate reader with 535-nm excision and 590-nm emission wavelengths. […]

Experiment [6] deals with THP-1 (ATCC TIB-202). Kind of experiment: Cytotoxicity assay (Resazurin). It counts as cell-based. Conditions: Homo sapiens, THP-1, 48 h, 2 days. The procedure:
(§3) Human cell lines were grown in their respective growth medium. Cells have been counted using a haemocytometer, and cell density was adjusted to 10^6 cells/mL. A 2-fold serial dilution was prepared in 96-well U-bottom plates, and cells were sown into the wells to a final density of […]. After 2 days at 37 °C and 5% CO2, 10 μL of a 100 μg/mL Resazurin dye solution was added to each well and was incubated for several hours. The reaction was inactivated with 100 μL of a 10% formalin solution per well. Finally, the fluorescence was quantified in a plate reader with 535-nm excision and 590-nm emission wavelengths.

The test system of experiment [7] is CLS-54 (CLS 300227). Briefly: Cytotoxicity assay (Resazurin). It counts as cell-based. Conditions: Homo sapiens, 48 h, 2 days. The protocol:
as §3

Experiment [8] relates to MRC-5 (ATCC CCL-171). Briefly: Cytotoxicity assay (Resazurin). The experiment is classed as cell-based. Conditions: Homo sapiens, MRC5, 48 h, 2 days. The procedure:
as §3

Experiment [9] relates to HepG2 (CLS 300198). Kind of experiment: Cytotoxicity assay (Resazurin). It counts as cell-based. Conditions: Homo sapiens, HepG2, 48 h, 2 days. The protocol: as §3
Experiment [10] has as its system HEK293 (CLS 300192). Briefly: Cytotoxicity assay (Resazurin). The experiment is classed as cell-based. Conditions: Homo sapiens, HEK293, 48 h, 2 days. The procedure: as §3
For experiment [11], the system named is HuH7 (CLS 300156). Kind of experiment: Cytotoxicity assay (Resazurin). It counts as cell-based. Conditions: Homo sapiens, Huh-7, 48 h, 2 days. The procedure: as §3
In experiment [12] the test system is actively replicating MRSA strain Mu50. Briefly: Killing kinetics, actively replicating cells (CFU plating). It counts as cell-based, Staphylococcus aureus. Conditions: MHB, start 10^6 CFU/mL; for time of first antibacterial effects: 4× MIC; for time until viability reached the detection limit: PPs at 4× MIC, moxifloxacin 20 μM, detection limit 10^2 CFU/mL. The procedure: S. aureus cells were freshly incubated in MHB until an OD600 nm of approx. 0.6 was reached. Next, the cells were diluted to 10^6 CFU/mL in 5 mL MHB. […] At certain time points (0, 0.5, 1, 3, 6, 8, 24 h), 100 μL was removed from the culture, diluted and plated onto MHA plates. After 24-h incubation, colonies were counted and viability (expressed as colony-forming units per mL (CFU/mL)) was calculated considering the dilution factor.

Experiment [13] concerns S. aureus mutant M6 (parental strain Mu50). Briefly: MIC of spontaneously resistant mutant. The experiment is classed as cell-based. Conditions: Staphylococcus aureus. The procedure:
as §2
(§4) Spontaneous resistant mutants have been generated with 2-bromo-PP and 3-bromo-PP to further investigate the mechanism of antibacterial action and resistance. Since isolation of spontaneous resistant mutants in one step was not successful on solid media containing 2-bromo-PP or 3-bromo-PP (i.e. resistance frequency < 10^−7 at 5-fold MIC), enrichment was done by passaging bacteria daily in liquid media containing increasing sublethal concentrations of PPs. […] Moreover, we observed cross-resistance between PPs since 2-bromo-PP-resistant mutants were also resistant against 3-bromo-PP and vice versa (Fig. 4a; Table 2).

Experiment [14] concerns S. aureus mutant M2 (parental strain ATCC 25923). Briefly: MIC of spontaneously resistant mutant. The experiment is classed as cell-based. Conditions: Staphylococcus aureus, ATCC25923. The protocol:
as §2, §4

The test system of experiment [15] is S. aureus mutant M3 (parental strain ATCC 25923). Briefly: MIC of spontaneously resistant mutant. Conditions: Staphylococcus aureus, ATCC25923. The experiment is classed as cell-based. The protocol: as §2, §4
Experiment [16] has as its system S. aureus mutant M5 (parental strain Mu50). Briefly: MIC of spontaneously resistant mutant. The experiment is classed as cell-based. Conditions: Staphylococcus aureus. The protocol: as §2, §4

With `Oc1c(Br)cc(Br)cc1Oc1ccc(Br)cc1Br` [2-bromo-PP, 4,6-dibromo-2-(2′,4′-dibromophenoxy)phenol], the MIC90 in experiment [1] is 0.78 µM and 0.39 µg/mL; in experiment [2], 0.39 µM and 0.2 µg/mL; in [3] it was 0.19 µM and 0.1 µg/mL; in experiment [4], 0.78 µM and 0.39 µg/mL; in experiment [13], 0.78 µM and 0.39 µg/mL; in [14], 1.56 µM and 0.78 µg/mL. Moreover, the MIC90 is 0.78 µM and 0.39 µg/mL in [15]; 1.56 µM and 0.78 µg/mL in [16]. Besides, the MIC in experiment [5] is 12.5 µM (≈ 6.27 µg/mL). The IC50 in experiment [6] was 6.25 µM; in experiment [7], over 100 µM; in experiment [8], over 100 µM; in experiment [9] it was 50 µM; in experiment [10] it was 12.5 µM; in [11] it was over 100 µM. Moreover, the “time of first antibacterial effects” value in [12] is 3 h. Also, the “time until viability reached the detection limit” value in [12] was found to be 8 h.

Take `Oc1c(Br)cc(Br)c(Br)c1Oc1ccc(Br)cc1Br` [3-bromo-PP, 3,4,6-tribromo-2-(2′,4′-dibromophenoxy)phenol]: the MIC90 in [1] was 0.78 µM and 0.45 µg/mL; in [2], 0.39 µM and 0.23 µg/mL; in experiment [3], 0.1 µM and 0.06 µg/mL; in experiment [4] it was 0.39 µM and 0.23 µg/mL; in experiment [13] it was 3.12 µM and 1.81 µg/mL; in experiment [14], 3.12 µM and 1.81 µg/mL. The MIC90 in experiment [15] is 6.25 µM and 3.63 µg/mL; in experiment [16], 3.12 µM and 1.81 µg/mL. In experiment [5], the MIC stood at 6.25 µM (≈ 3.63 µg/mL). The IC50 was 50 µM in experiment [6]; over 100 µM in experiment [7]; 100 µM in experiment [8]; 25 µM in experiment [9]; 3.12 µM in experiment [10]; over 100 µM in experiment [11]. The “time of first antibacterial effects” value in experiment [12] was found to be 6 h. Also, the “time until viability reached the detection limit” value in experiment [12] is given as 8 h.

Source of the values: paper PMC8217011, “Natural brominated phenoxyphenols kill persistent and biofilm-incorporated cells of MRSA and other pathogenic bacteria” (Applied Microbiology and Biotechnology, 2020).
